Data on three compounds can be found in article PMC12292862 (Biomedicines, 2025).

Structures are written as SMILES. “Also recorded” adds a separate entry of the source. Marks after values point to notes of the source that are not given here.

One data set deals with rat cyclooxygenase 2. Kind of data set: COX-2 level in carrageenan-injected paw (ELISA). The class given is in vivo. The following applies: compounds 200 mg/kg i.p., indomethacin 10 mg/kg, mean ± SD. The protocol:
The selective pro-inflammatory cytokines were measured quantitatively using rat-specific Enzyme-Linked Immunosorbent Assay (ELISA) kits from Thermo Scientific™ (Waltham, MA, USA) with CAT. No. ERCRP for CRP; from Elabscience with Cat. No. E-EL-R2856 for TNF-α and with Cat. No. E-EL-R0011 for IL-1α; from CUSABIO, Houston, TX, USA, with Cat. No. CSB-E04640r for IL-6; and from My BioSource Co, USA, with Cat. No. MBS825017 for IL-1β, with Cat. No. MBS753621 for rat cyclooxygenase 1, and with Cat. No. MBS266603 for rat cyclooxygenase 2. […] We purchased malondialdehyde (MDA), glutathione (GSH), and superoxide dismutase (SOD) detection kits from Nanjing Jiancheng Bio-Technology Co. Ltd. (Nanjing, China).
(§1) At the end of the experiments, the rats were subjected to anesthesia with chloroform and then sacrificed. Blood was obtained via heart puncture for biochemical analysis. Following the animals’ sacrifice, the paws were taken out, decalcified, and stored in a 10% formalin solution. To prepare the tissue samples, they were sliced into thicknesses of 5 µm. Hematoxylin and eosin dyes were used to create the histology slides, which were then examined using a photomicroscope (Meiji Techno®, Iruma, Japan) for pathological alterations. The presence of inflammation was documented. Protease/phosphatase inhibitor cocktail in cold phosphate-buffered saline (1:4) (pH 7, 0.01 mol/L) (Cat. No. PPC1010, Sigma-Aldrich) was used to homogenize each rat’s paw piece in a glass homogenizer. After filtering and centrifuging the resultant homogenate for five minutes at 5000× g, oxidative stress biomarkers like GSH, SOD, and MDA were measured. The trials were repeated three times.
In general terms: The carrageenan paw model is a standard test of acute inflammation.

The test system of the next data set is IL-1β. Kind of data set: Serum IL-1β (ELISA) in carrageenan-injected rats. The class given is in vivo, rat. Particulars: compounds 200 mg/kg i.p., indomethacin 10 mg/kg, mean ± SD. The protocol: (§2) The selective pro-inflammatory cytokines were measured quantitatively using rat-specific Enzyme-Linked Immunosorbent Assay (ELISA) kits from Thermo Scientific™ (Waltham, MA, USA) with CAT. No. ERCRP for CRP; from Elabscience with Cat. No. E-EL-R2856 for TNF-α and with Cat. No. E-EL-R0011 for IL-1α; from CUSABIO, Houston, TX, USA, with Cat. No. CSB-E04640r for IL-6; and from My BioSource Co, USA, with Cat. No. MBS825017 for IL-1β, with Cat. No. MBS753621 for rat cyclooxygenase 1, and with Cat. No. MBS266603 for rat cyclooxygenase 2. Meanwhile, an ovine COX inhibitor-screening in vitro assay (item number 760111) was obtained from Cayman Chemical (Ann Arbor, MI, USA). We purchased malondialdehyde (MDA), glutathione (GSH), and superoxide dismutase (SOD) detection kits from Nanjing Jiancheng Bio-Technology Co. Ltd. (Nanjing, China).
as §1
A general note: In an ELISA, binding on a coated surface is turned into a signal by an enzyme label.

The next data set deals with CRP. Kind of data set: Serum CRP (ELISA) in carrageenan-injected rats. The class given is in vivo, rat. Particulars: compounds 200 mg/kg i.p., indomethacin 10 mg/kg, mean ± SD. The protocol: as §2, §1
A further data set relates to Wistar rats. Kind of data set: Acute toxicity pilot study (OECD 423). The class given is in vivo. The following applies: rat, i.p., 200 mg/kg. The protocol: According to OECD guidelines (Testing of Chemical Number 423), the study was carried out. In this study, mature male Wistar rats in good health were selected. After a 24 h fast, the animals were divided into groups of six. The test compounds were injected intraperitoneally at dosages ranging from 100 mg to 2000 mg per kilogram, dissolved in 2% Tween 80 saline solutions (v/v). The animals in the control groups were given just the vehicle, which was Tween 80 in 0.9% normal saline. […] Thus, 200 mg/kg (ED 50), which is considered one-tenth of the LD 50, was chosen as the anti-inflammatory dose.

Data set [1] concerns rat paw tissue dermal collagen. Kind of data set: Sirius Red staining of dermal collagen in paw tissue. The class given is in vivo. Particulars: carrageenan-injected paw; compounds 200 mg/kg i.p., indomethacin 10 mg/kg.
The subject of the next data set is COX-2. Kind of data set: In vitro colorimetric COX (ovine) inhibitor-screening assay, COX-2. The class given is biochemical. The following applies: ovine COX-2, tested at 50, 100 and 150 µg/mL. The protocol: The test compounds’ ability to suppress COX-1 and COX-2 was evaluated using a colorimetric COX (ovine) inhibitor-screening method (Cayman Chemical, Item Number 760111). In brief, 150 μL of assay buffer, 10 μL of heme, 10 μL of enzyme (COX-1 or COX-2), and 10 μL of compound (1 mg/mL) make up the reaction mixture. In a final volume of […], the test compounds were evaluated at doses of 50, 100, and 150 μg/mL. The cyclooxygenase peroxidase component is used in the experiment. By monitoring the appearance of oxidized N, N, […] (TMPD) at 590 nm, the peroxidase activity is measured […]. […] The following formula was used to determine the % COX inhibition: The COX inhibition activity percentage is equal to (1 − T/C ×100), where T is the inhibitor well’s absorbance and C is the starting activity’s absorbance at 100% without the inhibitor well.

The subject of another data set is IL-6. Briefly: Serum IL-6 (ELISA) in carrageenan-injected rats. Particulars: compounds 200 mg/kg i.p., indomethacin 10 mg/kg, mean ± SD. The class given is in vivo, rat. On the procedure:
as §2, §1

A further data set has as its system IL-1α. Kind of data set: Serum IL-1α (ELISA) in carrageenan-injected rats. The class given is in vivo, rat. Particulars: compounds 200 mg/kg i.p., indomethacin 10 mg/kg, mean ± SD. The protocol: as §2, §1
The subject of data set [2] is carrageenan-induced rat paw edema. Briefly: Carrageenan-induced paw edema. The following applies: for inhibition of paw edema after 1 h / inhibition of paw edema after 2 h / inhibition of paw edema after 3 h: 200 mg/kg i.p.; for inhibition of paw edema after 1 h: 1 h after carrageenan; for inhibition of paw edema after 2 h: 2 h after carrageenan; for inhibition of paw edema after 3 h: 3 h after carrageenan; for inhibition of paw edema after 4 h: compounds 200 mg/kg i.p., indomethacin 10 mg/kg, 4 h after carrageenan. The class given is in vivo. The source says:
Rats’ carrageenan-induced paw edema model was used to assess the novel synthesized drugs’ anti-inflammatory properties. A total of 180–190 g of male Wistar rats were used for the experiments. In the animal house at Sohag University in Sohag, Egypt, every animal was kept in careful laboratory conditions. After being weighed and divided into six groups at random, the animals are housed for a week to reduce stress and allow them to get used to the laboratory environment. The chemicals that were synthesized were administered intraperitoneally (i.p.) to rats at a dosage of 200 mg/kg. The control group received only vehicles. […] The rats were given a 0.2 mL sub-plantar injection of a 1% (w/v) suspension of carrageenan (made in PBS) in their right hind paw thirty minutes following the injection of synthesized compounds [33]. […] The % inhibition of paw edema was calculated by the following formula [34]:%Inhibition = ((Mean edema of control group − Mean edema of test compound)/(Mean edema of control group)) × 100.

For a further data set, the system named is glutathione (GSH). Kind of data set: Paw tissue oxidative stress biomarker GSH. The class given is in vivo, rat. Particulars: carrageenan rats, 200 mg/kg i.p., result in words. On the procedure: as §2, §1

`NC1=NC2(CCCCCC2)n2nc(C(=O)Nc3ccc(S(N)(=O)=O)cc3)nc2N1` [Compound 1, 5′-Amino-N-(4-sulfamoylphenyl). -1′H-spiro[cycloheptane-1,7′-[1,2,4]triazolo[1,5-a][1,3,5] -triazine] -2′-carboxamide] gave a COX-2 level with rat cyclooxygenase 2 of 3.44 ± 0.30 ng/mL. In addition, the IL-1β in the data set with IL-1β is listed as 64.98 ± 0.30 ^b pg/mL. Also, the CRP in the data set with CRP is listed as 4.19 ± 0.28 ^b ng/mL. For the same compound, in the data set on Wistar rats, the Ability to feed entry was “Normal”, the “Change in skin color” value is given as “Normal”, the Death result was “No” and the Diarrhea result was “Present”. For the same compound, in the data set on Wistar rats, the Drowsiness entry is “Absent”, the Dyspnea result was “Absent”, the Micturition entry is on record as “Normal” and the Seizures entry is given as “Absent”. Further, the Weight loss result in the data set on Wistar rats was “No”. Moreover, the Death entry in the data set on Wistar rats (listed as compound 1, 200 mg/kg) is on record as “no mortality”. The “dermal collagen content and distribution (Sirius Red)” value in data set [1] is “normal collagen quantity and distribution; also recorded: normal in both quantity and organization”. For the same compound, the “COX-2 inhibition % (mean activity)” value in the data set on COX-2 is 98%. Also, the IL-6 in the data set on IL-6 is 14.44 ± 0.26 ^b pg/mL. Further, the IL-1α in the data set with IL-1α is listed as 56.97 ± 0.79 ^b pg/mL. For the same compound, in data set [2], the “inhibition of paw edema after 1 h” value amounted to 53.6%, the “inhibition of paw edema after 2 h” value turned out to be 65.74%, the “inhibition of paw edema after 3 h” value turned out to be 78.52% and the “inhibition of paw edema after 4 h” value amounted to 96.31%. The GSH concentration result in the data set with glutathione (GSH) is given as “notable improvements”.
`CC1(C)CC(=O)CC2(C1)N=C(N)Nc1nc(C(=O)Nc3ccc(S(N)(=O)=O)cc3)nn12` (centres unmarked) [Compound 2] displayed a COX-2 level with rat cyclooxygenase 2 of 4.10 ± 0.09 ng/mL. The IL-1β in the data set on IL-1β is on record as 77.98 ± 0.45 ^b pg/mL. For the same compound, the CRP in the data set with CRP was 3.02 ± 0.28 ^b ng/mL. In addition, in the data set on Wistar rats, the Ability to feed entry was “Normal”, the “Change in skin color” value is “Normal”, the Death result is “No” and the Diarrhea entry is “Present”. In addition, in the data set on Wistar rats, the Drowsiness result was “Absent”, the Dyspnea result is recorded as “Absent”, the Micturition result is recorded as “Normal” and the Seizures entry is given as “Absent”. In the data set on Wistar rats, the Weight loss entry is given as “No”. Further, the Death entry with Wistar rats (listed as compound 2, 200 mg/kg) is given as “no mortality”. Also, the “dermal collagen content and distribution (Sirius Red)” value in [1] is “normal dermal collagen; also recorded: normal appearance and distribution”. Further, in the data set with COX-2, the “COX-2 inhibition % (mean activity)” value is given as 98%. The IL-6 with IL-6 was 16.14 ± 0.16 ^b pg/mL. Besides, in the data set with IL-1α, the IL-1α is 62.82 ± 0.94 ^b pg/mL. Further, in data set [2], the “inhibition of paw edema after 4 h” value is on record as 72.08%. The GSH concentration entry in the data set on glutathione (GSH) is reported as “notable improvements”.
For the compound `NC1=NC2(c3ccccc3Cc3ccccc32)n2nc(C(=O)Nc3ccc(S(N)(=O)=O)cc3)nc2N1` [Compound 3], the COX-2 level with rat cyclooxygenase 2 is 2.22 ± 0.06 ng/mL. The same compound showed an IL-1β in the data set with IL-1β of 60.38 ± 0.73 pg/mL. In the data set with IL-1β (listed as C3), the IL-1β is on record as 60.38 ± 0.73 ^b pg/mL. The CRP in the data set on CRP is reported as 2.20 ± 0.36 ^b ng/mL. Besides, in the data set with Wistar rats, the Ability to feed entry was “Normal”, the “Change in skin color” value is given as “Normal”, the Death result is “No” and the Diarrhea entry is “Present”. In the data set on Wistar rats, the Drowsiness result is given as “Absent”, the Dyspnea entry is reported as “Absent”, the Micturition result is given as “Normal” and the Seizures result is “Absent”. The Weight loss result in the data set with Wistar rats was “No”. The Death entry in the data set on Wistar rats (listed as compound 3, 200 mg/kg) was “no mortality”. The “dermal collagen content and distribution (Sirius Red)” value in data set [1] is given as “normal dermal collagenous fibers without any lesion; also recorded: complete restoration of normal dermal collagen”. In the data set with COX-2, the “COX-2 inhibition % (mean activity)” value was 99%. This compound had an IL-6 in the data set on IL-6 of 11.39 ± 0.23 pg/mL. For the same compound, the IL-6 in the data set on IL-6 (listed as C3) was 11.39 ± 0.23 ^b pg/mL. In the data set on IL-1α, the IL-1α is 40.66 ± 0.43 ^b pg/mL. Also, in data set [2], the “inhibition of paw edema after 1 h” value is 59.5%, the “inhibition of paw edema after 2 h” value is 79.93%, the “inhibition of paw edema after 3 h” value came out at 97.23% and the “inhibition of paw edema after 4 h” value is reported as 99.69%. The GSH concentration entry with glutathione (GSH) is given as “near-control values”.
